Experimental data reported in patent US7351875B2, “FcγRIIa transgenic animal model for autoimmune disease” (Trillium Therapeutics, Inc., priority 2002, dated 2008).

Assays:
[1] = tested on: non transgenic DBA/1 mice with CIA; conditions: Neurath, Hildner et al. 1999; cited from earlier work
[2] = tested on: FcγRIIa transgenic mice with CIA; assay: Collagen-induced arthritis (CIA) in FcγRIIa transgenic mice, arthritis index; format: in vivo, mouse; conditions: FIG. 14
Description: In transgenic mouse models of the present invention the following mice strains were used DBA/1 (H-2^q) males at 8-12 weeks old, C57BL/6 (H-2^b) and (C57BL/6×SJ (H-2^b/s) males or females at 8-15 weeks old, and transgenic mice expressing the FcγRIIa human transgene on platelets, neutrophils and macrophages at physiological levels, (as described in McKenzie et al. 1999). Transgenic males or females at 12-15 weeks old were used in collagen-induced arthritis (CIA) experiments, and >25 weeks old for the spontaneous autoimmune disease studies. All mice were bred and kept in clean conditions and were fed a standard diet and water ad libitum. The mouse is characterised in the published paper by McKenzie et al. 1999, listed in references.
Complete Freund's Adjuvant (CFA) was prepared by mixing 100 mg heat-killed M tuberculosis H37 Ra (Difco Laboratories, Detroit, Mich.) ground in 20 ml Incomplete Freund's Adjuvant (Difco Laboratories, Detroit, Mich.). […]
Mice were examined 2-3 times per week from day 14 onwards. […] The score of each mouse was calculated for the four limbs (maximum total score of 12 for each mouse) (Campbell et al. 1997). […]
The score for each mouse was calculated by adding the scores of the four limbs (maximum score of 12 for each mouse) (Campbell et al. 1997). […]

CN(Cc1cnc2nc(N)nc(N)c2n1)c1ccc(C(=O)N[C@@H](CCC(=O)O)C(=O)O)cc1 [methotrexate]
delay of CIA in DBA/1 mice [1]: effective in delaying CIA
delay of CIA ([2]; 1 mg/kg for 14 days from second collagen injection, day 21-35): effective in delaying CIA
disease after treatment ceased ([2]; as immune function returned to normal after treatment ceased): increased in severity
